Data: patent US20120100564A1, “Prediction of Memapsin 2 Cleavage Sites” (priority 2010, published 2012)
Peptide text beside a SMILES is read from it.

Columns and labels:
γ-secretase = assay: CTF99 level in APP-transfected CAD cells with γ-secretase inhibitor (Western blot); format: cell-based, mouse; conditions: in both APPIDF and APPSW cells
Method: Cell culture, transfection and analysis of APP processing products. Mouse neuronal CAD cell line was cultured with DMEM/F12 media (Invitrogen, Carlsbad, Calif.) containing 10% fetal bovine serum and 2% penicillin/streptomycin. Transient trransfections were performed using Fugene HD (Roche, Sweden) according to the manufacture's instruction. 24 hours later after transfection, total cell lysate and cell media were collected and 1% of Protease inhibitor was added (Calbiochem, Gibbstown, N.J.). Aβ level in media was assayed by Aβ [1-40] Human Fluorimetric ELISA Kit (invitrogen, Carlsbad, Calif.). Conditioned media or total cell lysate from the transiently transfected cells were subjected to 10% or 10-20% tricine SDS-PAGE gels (Invitrogen, Carlsbad, Calif.), and transferred to PVDF membranes. The blots were probed with antibodies. The western blot analysis was used for determining the levels of full-length APP, APP's proteolytic products and β-actin.
APPIDF and APPSW cells were also similar in cellular processing characteristics. […] CTF99 is increased in both APPIDF and APPSW cells when γ-secretase inhibitor DAPT slowed its degradation (FIG. 4A, second line, right lanes). As expected, APP ectodomain fragment from α-secretase cleavage, sAPPα, decreased in both APPIDF and APPSW cells as compared to that in APPWT cells (FIG. 4A, fourth panel).

human memapsin 2 = molecular target: T1, human memapsin 2 (Homo sapiens, UniProt P56817); assay: Determination of kcat/KM of memapsin 2 substrate peptides (steady-state kinetics and competitive hydrolysis, ESI LC/MS); format: biochemical; conditions: steady-state kinetics, substrate 5 μM to 150 μM, pH 4.0, 37° C.
T1 construct: The ecto-domain of human memapsin 2 was expressed and purified as described previously (Hong et al., 2000); made in house
T1 sequence (P56817 46-457 limits assumed): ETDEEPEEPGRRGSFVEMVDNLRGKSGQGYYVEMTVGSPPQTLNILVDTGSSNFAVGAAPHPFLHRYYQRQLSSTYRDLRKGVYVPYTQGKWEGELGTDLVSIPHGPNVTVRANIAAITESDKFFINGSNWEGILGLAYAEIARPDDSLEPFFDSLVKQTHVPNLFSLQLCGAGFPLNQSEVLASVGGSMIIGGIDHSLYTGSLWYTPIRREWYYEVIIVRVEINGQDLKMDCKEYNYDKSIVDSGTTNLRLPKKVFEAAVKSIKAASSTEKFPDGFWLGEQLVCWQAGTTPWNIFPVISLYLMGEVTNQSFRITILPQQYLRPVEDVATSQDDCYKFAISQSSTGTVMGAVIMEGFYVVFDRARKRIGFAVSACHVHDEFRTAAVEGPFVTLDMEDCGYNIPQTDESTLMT
Text: Materials. α-cyan-4 hydroxycinnamic acid, D0- and D6-form acetic anhydride , N-hydroxysuccinimide were purchased from Sigma. Peptide (Des-Ser1)-Cerebellin was purchased from Bachem (Bubendorf, Switzerland). All peptides derived from memapsin 2 potential substrates were synthesized by GenScript (Piscataway, N.J.). The ecto-domain of human memapsin 2 was expressed and purified as described previously (Hong et al., 2000). Monoclonal anti-memapsin 2 antibody 3E7 was purchased from Santa Cruz Biotechnology Inc (Santa Cruz, Calif.). Monoclonal anti-APP antibody 1560, MAB348 and polyclonal anti-APP antibody 5352 were purchased from Millipore (Billerica, Mass.). Monoclonal anti-actin antibody was purchased from Abcam (Cambridge, Mass.).
Determination of kcat/KM of different memapsin 2's substrates. […] Initial velocity was determined by ESI LC/MS, in which the product an substrate peak areas were quantitated. The kinetic parameters, kcat and KM were determined from non-linear regression using Grafit software (Surrey, UK). […] Relative kcat/KM of different substrates were determined by comparing the initial hydrolysis rates to that of VGSC beta 2.
Comparison of the kinetics for peptides derived from memapsin 2 protein substrates. […] The relative kcat/KM values of other twelve peptides were determined from their relative pseudo-first-order hydrolytic rates. […]

Row | Km (human memapsin 2) [µM] | Compound | CTF99 level (γ-secretase)
1 | – | C[C@H](NC(=O)Cc1cc(F)cc(F)c1)C(=O)N[C@H](C(=O)OC(C)(C)C)c1ccccc1 [DAPT] | increased
2 | 36.4 | CC[C@H](C)[C@H](NC(=O)[C@H](CCCCN)NC(=O)CNC(=O)[C@H](Cc1c[nH]cn1)NC(=O)CNC(=O)[C@@H](N)CCCNC(=N)N)C(=O)N[C@@H](Cc1ccc(O)cc1)C(=O)N[C@@H](CC(C)C)C(=O)N[C@@H](CCC(N)=O)C(=O)N[C@H](C(=O)N[C@@H](CC(C)C)C(=O)N[C@@H](CC(C)C)C(=O)O)C(C)C [VGSC-β2] (H-RGHGKIYLQVLL-OH) | –
